# Measured values taken from patent US4150153A, “1-(Naphthylethyl)imidazole derivatives” (Syntex (U.S.A.) Inc., priority 1977, dated 1979).
# Legend:
# [1] = lethalities in mice after a single intraperitoneal dose; conditions: mouse, in vivo, ip, single dose intraperitoneally, lethalities determined after five days, doses 1-1,000 mg/kg
# Procedure: Groups of 3 male ICR derived mice weighing 18-24 grams were given a single dose of compound intraperitoneally. The following doses were employed: 1, 3, 10, 30, 100, 300 or 1,000 mg/kg. After five days lethalities were determined.
# [2] = tested on: male Hilltop ICR-derived mice; experiment: Maximal Electroshock Test in Mice; type: in vivo; conditions: intraperitoneally 15 minutes prior to transcorneal maximal electroshock (50 milliamps, 0.2 seconds), antagonizing tonic extension, in parentheses 95% confidence limits; for ED50: Mus musculus, ip, 0.25 h
# Procedure: Maximal Electroshock Test in Mice
# This test was performed in the standard manner, essentially as described by Swinyard et al., J. Pharm.
# Groups of 10 male Hilltop ICR-derived mice weighing 20-30 grams were dosed intraperitoneally with a solution or suspension of drug in saline 15 minutes prior to a transcorneal maximal electroshock (50 milliamps, 0.2 seconds).
Structure (SMILES),LD50 at 120 h [1],ED50 [2],ED50 (95% confidence limits) [2]
O=C(Cn1ccnc1)c1cccc2ccccc12 [1-(1-naphthoylmethyl)imidazole],100 to 300 mg/kg,~60 mg/kg,–
O=C(Cn1ccnc1)c1ccc2ccccc2c1 [1-(2-naphthoylmethyl)imidazole],100 to 300 mg/kg,23 mg/kg,–
"CC1CSC(Cn2ccnc2)(c2ccc3ccccc3c2)S1.Cl (stereo not drawn) [1-[2,2-(1,2-propylenedithio)-2-(2-naphthyl)ethyl]imidazole hydrochloride]",–,–,65 (55-73) mg/kg
"c1ccc2cc(C3(Cn4ccnc4)OCCCO3)ccc2c1 [1-[2,2-(1,3-propylenedioxy)-2-(2-naphthyl)ethyl]imidazole]",–,17 mg/kg,–
"CC1CCOC(Cn2ccnc2)(c2ccc3ccccc3c2)O1 (stereo not drawn) [1-[2,2-(1-methyl-1,3-propylenedioxy)-2-(2-naphthyl)ethyl]imidazole]",–,19 mg/kg,–
"CC1(C)COC(Cn2ccnc2)(c2ccc3ccccc3c2)OC1 [1-[2,2-(2,2-dimethyl-1,3-propylenedioxy)-2-(2-naphthyl)ethyl]imidazole]",–,26 mg/kg,–
"CCSC(Cn1ccnc1)(SCC)c1ccc2ccccc2c1 [1-[2,2-bis(ethylthio)-2-(2-naphthyl)ethyl]imidazole]",–,35 mg/kg,–
"CSC(Cn1ccnc1)(SC)c1ccc2ccccc2c1 [1-[2,2-bis(methylthio)-2-(2-naphthyl)ethyl]imidazole]",–,32 mg/kg,–
"c1ccc2c(C3(Cn4ccnc4)OCCO3)cccc2c1 [1-[2,2-ethylenedioxy-2-(1-naphthyl)ethyl]imidazole]",–,19 mg/kg,–
"c1ccc2cc(C3(Cn4ccnc4)OCCO3)ccc2c1 [1-[2,2-ethylenedioxy-2-(2-naphthyl)ethyl]imidazole]",100 to 300 mg/kg,12 mg/kg,–
"c1ccc2cc(C3(Cn4ccnc4)SCCS3)ccc2c1 [1-[2,2-ethylenedithio-2-(2-naphthyl)ethyl]imidazole]",–,26 mg/kg,–
OC(Cn1ccnc1)c1cccc2ccccc12 (stereo not drawn) [1-[2-hydroxy-2-(1-naphthyl)ethyl]imidazole],300 to 1000 mg/kg,37 mg/kg,–
OC(Cn1ccnc1)c1ccc2ccccc2c1 (stereo not drawn) [1-[2-hydroxy-2-(2-naphthyl)ethyl]imidazole],300 to 1000 mg/kg,74 mg/kg,–
